Results from patent US20200093768A1, “METHOD FOR TREATING DIABETES” (Huanggang Normal University, priority 2018, published 2020).
Marks after values point to notes of the source that are not given here.

How the values were obtained:
[1] = tested on: Zucker diabetic fatty (ZDF) rats; experiment: Anti-inflammatory cytokines (IL-4, IL-10, IL-13) by ELISA; assay type: in vivo, rat; conditions: for IL-10 plasma levels: versus ZDF controls (FIG. 5B)
Excerpt: On study day 30, blood was collected at CRL.
The expression of inflammatory genes in blood and epididymal adipose tissue was next analyzed. A panel of three anti-inflammatory cytokines in whole blood was quantified by ELISA analysis as a measure for systemic inflammation (FIG. 5). IL-4, IL-10 and IL-13 are involved in the reduction of the inflammatory response through inhibition of NFκB signaling and cytokine release from macrophages.

[2] = tested on: Zucker diabetic fatty (ZDF) rats; experiment: Oral glucose tolerance test (OGTT) on study day 29; conditions: day 29, overnight fasted, glucose 2 g/kg, versus ZDF vehicle control, metformin from 15 min (p<0.01), ibuprofen at 15 min (p<0.01) and 30 min (p<0.05)
hyperglycemic adults = conditions: clinical pilot study, low dosage of ibuprofen; cited from earlier work
[3] = tested on: Zucker diabetic fatty (ZDF) rats; experiment: Fasted and fed blood glucose in ZDF rats; conditions: for Fasted blood glucose levels: 5 hrs fasted, versus ZDF vehicle control (FIG. 1A)
[4] = tested on: Zucker diabetic fatty (ZDF) rats; experiment: Clinical chemistry analysis: insulin, adiponectin, lipid parameters; assay type: in vivo, rat
Protocol: Plasma analysis of insulin, adiponectin, cytokines and a full clinical chemistry panel with lipid parameters was performed at CRL using commercially available ELISA and colorimetric kits.

[5] = Body weight, food intake and BMI of ZDF rats treated once daily for 30 days; assay type: in vivo, rat; set-up: Food Intake / BMI: unit not given here; conditions: for Change in body weight versus ZDF control (in words): ibuprofen between day 8 and 26; for BMI / Body Weight / Food Intake: oral gavage once daily (metformin 250 mg/kg, ibuprofen 100 mg/kg); for BMI / Food Intake: n=8; for Body Weight: n=8, in g (unit assumed); for Food Intake: recorded weekly
[6] = tested on: Zucker diabetic fatty (ZDF) rats; experiment: HbA1c analysis in whole blood; assay type: in vivo, rat; conditions: after 30 days of treatment, versus ZDF controls (FIG. 3A)
Protocol: On study day 30, blood was collected at CRL. […] Glycated hemoglobin (HbA1c) levels in venous whole blood were determined at CRL using the HbA1c Now test kit (Bayer, Whippany, N.J.). HbA1c was measured in treatment groups by immunoassay with anti-HbA1c using tail nick whole blood.

[7] = tested on: inflammatory genes (COX-2, ICAM-1, IL-1β, IL-6, TNF-α) in whole blood; experiment: TaqMan qPCR of inflammatory genes in whole blood; assay type: in vivo, rat; conditions: ZDF rats, normalized to GAPDH, versus ZDF controls (FIG. 6A)
Protocol: On study day 30, blood was collected at CRL. HbA1c was measured at 8 hrs on a drop of tail whole blood and then animals were fasted. At 11 hrs, animals were dosed per normal and euthanized at 13 hrs by CO2 asphyxiation. Blood was withdrawn by cardiac puncture and 1 mL of whole blood placed into cryo vials for RNA extraction. Remaining blood was centrifuged (at 2200×g for 10 minutes at 22° C.) and serum (500 uL) pipetted into 96 well plates on dry ice for analysis of the following: insulin, adiponectin, clinical chemistry panel with lipid parameters, and the inflammatory panel. Liver, epididymal fat, kidney, heart and spleen were collected and a representative piece was snap frozen. 100 mg of tissue was transferred into 1.5 mL cold RNA later tubes and stored overnight at 4° C. before being moved to −20° C. […]
In the next set of experiments, the expression of a subset of inflammatory genes were quantified in whole blood (FIG. 6A) and epididymal fat tissue (FIG. 6B): cyclooxygenase-2 (COX-2), intracellular adhesion molecule-1 (ICAM-1), interleukin-1β (IL-1β), interleukin-6 (IL-6) and tumor necrosis factor-α (TNF-α) by TaqMan qPCR analysis. […]

[8] = after 30 days, versus ZDF controls (FIG. 4D-F)
[9] = Day 29 (after overnight fasting), mean

| SMILES | IL-10 plasma levels [1] | Blood glucose in OGTT [2] | Fasted blood glucose levels [3] | Fasting cholesterol [4, 8] | HDL [4, 8] | Change in food intake versus ZDF control (in words) ([5]; chronic treatment) | Change in body weight versus ZDF control (in words) ([5]; chronic treatment) | BMI ([5]; Day 1, mean) | Body Weight ([5]; Day 1, mean) | Body Weight ([5]; Day 4, mean) | BMI ([5]; Day 8, mean) | Body Weight ([5]; Day 8, mean) | Body Weight ([5]; Day 11, mean) | BMI ([5]; Day 15, mean) | Body Weight ([5]; Day 15, mean) | Body Weight ([5]; Day 19, mean) | BMI ([5]; Day 22, mean) | Body Weight ([5]; Day 22, mean) | Body Weight ([5]; Day 26, mean) | Body Weight [5, 9] | also measured |
| --- | --- | --- | --- | --- | --- | --- | --- | --- | --- | --- | --- | --- | --- | --- | --- | --- | --- | --- | --- | --- | --- |
| CC(C)Cc1ccc(C(C)C(=O)O)cc1 (stereo not drawn) [ibuprofen, 2-(4-Isobutylphenyl)propanoic acid] | No significant changes | significant decrease in blood glucose | did reduce fasting blood glucose levels but this was not significant | strong decline | strong decline | lower food intake | decline in body weight | 2.67 | 386.5 | 370.8 | 2.51* | 376.4** | 379.4* | 2.44 | 377.9 | 376.3* | 2.47 | 385.8 | 380.6* | 359.0 | IL-4 level ([1]; versus ZDF controls (FIG. 5A)): significantly increased; IL-13 levels ([1]; versus ZDF controls (FIG. 5C)): increased; Glucose and insulin in hyperglycemic adults (hyperglycemic adults): did not reveal major differences; BMI ([5]; Day 29, mean): 2.28; Food Intake ([5]; Day 8, mean): 225.4**; Food Intake ([5]; Day 15, mean): 258.8*; Food Intake ([5]; Day 22, mean): 233.5*; Food Intake ([5]; Day 28, mean): 239.3*; Glycated hemoglobin (HbA1c) [6]: attenuated the glycation of hemoglobin |
| CN(C)C(=N)NC(=N)N [metformin, 1,1-dimethylbiguanide] | No significant changes | significant decline in blood glucose | significant decrease | No significant differences | No significant differences | did not cause any significant changes | did not cause any significant changes | 2.60 | 376.6 | 377.8 | 2.57 | 388.5 | 396.1 | 2.47 | 390.9 | 400.8 | 2.52 | 399.9 | 405.6 | 378.9 | Fed glucose levels ([3]; fed, versus ZDF vehicle control (FIG. 1B)): significant higher levels on day 22 and 28; LDL [4, 8]: No significant differences; Plasma insulin levels ([4]; day 30 (FIG. 3B)): 1.54 ng/mL; Change in BMI versus ZDF control (in words) ([5]; chronic treatment): did not cause any significant changes; BMI ([5]; Day 29, mean): 2.39; Food Intake ([5]; Day 8, mean): 255.1; Food Intake ([5]; Day 15, mean): 309.9; Food Intake ([5]; Day 22, mean): 299.1; Food Intake ([5]; Day 28, mean): 278.8; ICAM-1 gene expression [7]: no differences; Glycated hemoglobin (HbA1c) [6]: did not significantly affect |
